Experiments:
[1] = molecular target: T1, human sphingosine-1-phosphate receptor 1 (S1P1) (Homo sapiens, UniProt P21453); assay: Inhibition of cAMP production (HTRF cAMP HiRange), S1P1 CHO-K1 cells; type: cell-based
How it was run: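 Intracellular cAMP changes read by TR-FRET (HTRF HiRange, 1 h room temperature) after 30 min compound exposure at 37 °C. Cells: overnight-plated CHO-K1 stably expressing tagged human S1P1 with EA-β-arrestin2. Responses normalized to fingolimod.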
Target sequence in this assay (P21453 whole entry): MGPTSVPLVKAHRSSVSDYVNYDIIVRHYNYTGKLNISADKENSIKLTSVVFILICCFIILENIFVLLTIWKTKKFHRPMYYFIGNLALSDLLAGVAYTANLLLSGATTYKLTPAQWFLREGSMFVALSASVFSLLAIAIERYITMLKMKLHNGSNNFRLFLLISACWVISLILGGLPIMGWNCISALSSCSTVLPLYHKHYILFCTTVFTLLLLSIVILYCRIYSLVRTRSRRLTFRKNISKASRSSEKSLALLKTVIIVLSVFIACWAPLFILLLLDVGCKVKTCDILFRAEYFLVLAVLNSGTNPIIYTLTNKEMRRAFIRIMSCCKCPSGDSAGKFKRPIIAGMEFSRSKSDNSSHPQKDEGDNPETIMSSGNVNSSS

[2] = molecular target: T1, human sphingosine-1-phosphate receptor 1 (S1P1); assay: β-Arrestin2 recruitment assay (PathHunter), S1P1 CHO-K1 cells; type: cell-based
How it was run: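 Agonist-driven β-arrestin2 recruitment measured by β-galactosidase complementation after 60 min compound exposure at 37 °C and 1 h detection at room temperature. Cells: stable CHO-K1 line expressing tagged human S1P1 with EA-β-arrestin2, plated the night before. Data expressed relative to fingolimod.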
Target sequence in this assay (P21453 whole entry): as above
Target sequence in this assay (P32121 whole entry partner): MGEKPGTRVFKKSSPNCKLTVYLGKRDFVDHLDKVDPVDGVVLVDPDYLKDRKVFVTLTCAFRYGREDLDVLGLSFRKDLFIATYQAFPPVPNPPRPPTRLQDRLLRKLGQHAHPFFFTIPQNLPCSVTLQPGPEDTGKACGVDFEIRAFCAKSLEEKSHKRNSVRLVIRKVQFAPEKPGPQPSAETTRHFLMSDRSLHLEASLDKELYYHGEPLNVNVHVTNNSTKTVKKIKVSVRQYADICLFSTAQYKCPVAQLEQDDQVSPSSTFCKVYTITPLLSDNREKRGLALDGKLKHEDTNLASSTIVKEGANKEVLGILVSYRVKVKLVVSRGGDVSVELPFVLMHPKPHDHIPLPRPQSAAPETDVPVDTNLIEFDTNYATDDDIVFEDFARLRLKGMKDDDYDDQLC

[3] = CHO-K1, efficacy normalized to maximum efficacy of fingolimod, read-out: hS1P1 CAMP SPAN
[4] = inhibition of cAMP production, S1P1, read-out: hS1P1 CAMP pEC50 (converted)
[5] = CHO-K1, efficacy normalized to maximum efficacy of fingolimod, read-out: hS1P1 B-arrestin2 SPAN
[6] = β-arrestin2 recruitment, S1P1, read-out: hS1P1 B-arrestin2 pEC50 (converted)
[7] = CHO-K1, inhibition of cAMP production, efficacy normalized to maximum efficacy of fingolimod, read-out: hS1P1 CAMP SPAN
[8] = inhibition of cAMP production, potency, read-out: hS1P1 CAMP pEC50 (converted)
[9] = CHO-K1, β-arrestin2 recruitment, efficacy normalized to maximum efficacy of fingolimod, read-out: hS1P1 B-arrestin2 SPAN
[10] = β-arrestin2 recruitment, potency, read-out: hS1P1 B-arrestin2 pEC50 (converted)

SMILES	Emax [1, 3]	EC50 [1, 4]	Emax [2, 5]	EC50 [2, 6]	Emax [1, 7]	EC50 [1, 8]	Emax [2, 9]	EC50 [2, 10]	further results
CCC1(CC)CC(=O)c2cc(-c3nc(-c4ccc(NS(C)(=O)=O)cc4OC)no3)ccc2O1 [Compound 568, N-{4-[5-(2,2-diethyl-4-oxo-3,4-dihydro-2H-1-benzopyran-6-yl)-1,2,4-oxadiazol-3-yl]-3-methoxyphenyl}methane-sulfonamide]	> 75%	< 0.316 µM	> 75%	< 10 µM					
CCC1(CC)CC(=O)c2cc(-c3nc(-c4ccccc4OC)no3)ccc2O1 [Compound 268, 2,2-diethyl-6-[3-(2-methoxyphenyl)-1,2,4-oxadiazol-5-yl]chroman-4-one]					> 75%	< 0.316 µM	> 75%	< 10 µM	
Cc1cccc(-c2nc(-c3ccc4c(c3)nnn4C3CCCC3)no2)c1 [Compound 273, 3-(1-cyclopentyl-1H-benzo[d][1,2,3]triazol-5-yl)-5-(m-tolyl)-1,2,4-oxadiazole]					< 75%	> 0.316 µM	< 75%	> 10 µM	
Cc1ccccc1-c1noc(-c2ccc3scnc3c2)n1 [Compound 362, 5-[3-(2-methylphenyl)-1,2,4-oxadiazol-5-yl]-1,3-benzothiazole]					< 75%	> 0.316 µM	< 75%	> 10 µM	
CCOP(=O)(Cc1ccc(-c2noc(-c3ccc4c(c3)nnn4C(C)C)n2)cc1)OCC [Compound 583, diethyl[(4-{5-[1-(propan-2-yl)-1H-1,2,3-benzotriazol-5-yl]-1,2,4-oxadiazol-3-yl}phenyl)methyl]phosphonate]									EC50 [1]: > 0.316 µM; Emax ([1]; CHO-K1, read-out: hS1P1 CAMP SPAN): < 75%; EC50 [2]: > 10 µM; Emax ([2]; CHO-K1, read-out: hS1P1 B-arrestin2 SPAN): < 75%
CC(C)(O)Cn1nnc2cc(-c3nc(-c4ccc5nonc5c4)no3)ccc21 [Compound 590, 1-{5-[3-(2,1,3-benzoxa-diazol-5-yl)-1,2,4-oxadiazol-5-yl]-1H-1,2,3-benzotriazol-1-yl}-2-methylpropan-2-ol]	< 75%	> 0.316 µM	< 75%	> 10 µM					
CC(C)n1nnc2cc(-c3nc(-c4cccnc4)no3)ccc21 [Compound 165, 1-(propan-2-yl)-5-[3-(pyridin-3-yl)-1,2,4-oxadiazol-5-yl]-1H-1,2,3-benzotriazole]					> 75%	> 0.316 µM	> 75%	> 10 µM	
CCC1(CC)CC(=O)c2cc(-c3nc(-c4cncc(OC)c4)no3)ccc2O1 [Compound 311, 2,2-diethyl-6-(3-(5-methoxypyridin-3-yl)-1,2,4-oxadiazol-5-yl)chroman-4-one]					> 75%	> 0.316 µM	> 75%	> 10 µM	
Cc1cccc2nc(-c3ccc4c(c3)nnn4CC(C)C)oc12 [Compound 449, 2-(1-isobutyl-1H-benzo[d][1,2,3]triazol-5-yl)-7-methyl-benzo[d]oxazole]	> 75%	> 0.316 µM	> 75%	> 10 µM					
CCC1(CC)CC(=O)c2cc(-c3nc(-c4ccc5cnccc5c4)no3)ccc2O1 [Compound 522, 2,2-diethyl-6-(3-(isoquinolin-6-yl)-1,2,4-oxadiazol-5-yl)chroman-4-one]	> 75%	> 0.316 µM	> 75%	> 10 µM					
CCC1(CC)CC(=O)c2cc(-c3ncc(-c4ccccc4OC)cn3)ccc2O1 [Compound 594, 2,2-diethyl-6-(5-(2-methoxyphenyl)pyrimidin-2-yl)chroman-4-one]	> 75%	< 0.316 µM	> 75%	< 10 µM					
CC(C)n1nnc2cc(-c3noc(-c4ccccc4Br)n3)ccc21 [Compound 43, 5-(2-bromophenyl)-3-(1-isopropyl-1H-benzo[d][1,2,3]triazol-5-yl)-1,2,4-oxadiazole]					> 75%	< 0.316 µM	> 75%	< 10 µM	
Cc1ccccc1-c1noc(-c2ccc3c(c2)nnn3C2CC2)n1 [Compound 171, 1-cyclopropyl-5-[3-(2-methylphenyl)-1,2,4-oxadiazol-5-yl]-1H-1,2,3-benzotriazole]					> 75%	< 0.316 µM	> 75%	< 10 µM	
Cc1nccnc1-c1nc(-c2ccc3c(c2)nnn3CC(C)(C)CO)no1 [Compound 540, 2,2-dimethyl-3-(5-(5-(3-methylpyrazin-2-yl)-1,2,4-oxadiazol-3-yl)-1H-benzo[d] [1,2,3]triazol-1-yl)propan-1-ol]	< 75%	> 0.316 µM	< 75%	> 10 µM					
